Results from the NIST ThermoML archive (doi:10.1016/j.jct.2016.04.003).

Assay: xn = mol fraction of the nth substance listed
Conditions: for surface tension liquid-gas: Drop volume; for viscosity / speed of sound / mass density: 99 kPa, Liquid; for viscosity: Capillary tube (Ostwald / Ubbelohde) method; for speed of sound: Frequency=3 MHz, Sing-around technique in a fixed-path interferometer; for mass density: Vibrating tube method

CCC[n+]1ccccc1.F[B-](F)(F)F [1-propylpyridinium tetrafluoroborate] + O
Conditions	mass density [kg/m3]	speed of sound [m/s]	surface tension liquid-gas [mN/m]	viscosity [mPa·s]
293.15 K, x1 = 0.0185	1034.4	1537.2	–	–
293.15 K, x1 = 0.028	–	–	58.5	–
293.15 K, x1 = 0.0287	1050.5	1551	–	–
293.15 K, x1 = 0.0466	1074	1568.7	–	–
293.15 K, x1 = 0.0492	–	–	–	1.359
293.15 K, x1 = 0.0551	–	–	56.1	–
293.15 K, x1 = 0.0766	1103.9	1590.8	–	–
293.15 K, x1 = 0.0952	–	–	–	1.827
293.15 K, x1 = 0.0964	1119	1602.6	–	–
293.15 K, x1 = 0.1008	–	–	54	–
293.15 K, x1 = 0.1522	–	–	52.7	–
293.15 K, x1 = 0.1948	–	–	–	2.933
293.15 K, x1 = 0.1965	–	–	52	–
293.15 K, x1 = 0.2011	1169.1	1640.9	–	–
293.15 K, x1 = 0.2588	–	–	–	4.438
293.15 K, x1 = 0.2858	1191.6	1651.5	–	–
293.15 K, x1 = 0.2947	–	–	51.5	–
293.15 K, x1 = 0.3451	–	–	51.4	–
293.15 K, x1 = 0.3891	–	–	–	8.303
293.15 K, x1 = 0.3968	–	–	51.2	–
293.15 K, x1 = 0.3993	1211.3	1654.2	–	–
293.15 K, x1 = 0.4779	–	–	51.1	–
293.15 K, x1 = 0.4894	–	–	–	13.36
293.15 K, x1 = 0.4979	1223.2	1651.5	–	–
293.15 K, x1 = 0.5772	1230.6	1648.1	–	–
293.15 K, x1 = 0.5827	–	–	51.1	–
293.15 K, x1 = 0.5942	–	–	–	19.97
293.15 K, x1 = 0.6015	1232.5	1647.3	–	–
293.15 K, x1 = 0.6695	1237.6	1645.8	–	–
293.15 K, x1 = 0.6846	–	–	51	–
293.15 K, x1 = 0.6952	–	–	–	33.13
293.15 K, x1 = 0.7309	1241.4	1645.4	–	–
293.15 K, x1 = 0.7771	1244.2	1645.6	–	–
293.15 K, x1 = 0.7861	–	–	51	–
293.15 K, x1 = 0.7903	–	–	–	53.92
293.15 K, x1 = 0.8395	1247.6	1647.1	–	–
293.15 K, x1 = 0.8862	–	–	51.1	–
293.15 K, x1 = 0.8982	–	–	–	97.09
293.15 K, x1 = 0.9054	1251.2	1649.5	–	–
293.15 K, x1 = 0.9425	–	–	51.2	–
293.15 K, x1 = 0.943	–	–	–	124.2
293.15 K, x1 = 0.9633	1254.5	1652.1	–	–
293.15 K, x1 = 1	1256.7	1653.9	51.3	160
303.15 K, x1 = 0.0185	1030.5	1550.2	–	–
303.15 K, x1 = 0.028	–	–	57.2	–
303.15 K, x1 = 0.0287	1046.1	1564	–	–
303.15 K, x1 = 0.0466	1068.7	1581.1	–	–
303.15 K, x1 = 0.0492	–	–	–	1.092
303.15 K, x1 = 0.0551	–	–	54.8	–
303.15 K, x1 = 0.0766	1097.8	1599.5	–	–
303.15 K, x1 = 0.0952	–	–	–	1.278
303.15 K, x1 = 0.0964	1112.5	1607.8	–	–
303.15 K, x1 = 0.1008	–	–	52.8	–
303.15 K, x1 = 0.1522	–	–	51.6	–
303.15 K, x1 = 0.1948	–	–	–	2.334
303.15 K, x1 = 0.1965	–	–	50.9	–
303.15 K, x1 = 0.2011	1161.7	1627.8	–	–
303.15 K, x1 = 0.2588	–	–	–	3.141
303.15 K, x1 = 0.2858	1184.2	1630.3	–	–
303.15 K, x1 = 0.2947	–	–	50.6	–
303.15 K, x1 = 0.3451	–	–	50.5	–
303.15 K, x1 = 0.3891	–	–	–	6.162
303.15 K, x1 = 0.3968	–	–	50.3	–
303.15 K, x1 = 0.3993	1203.8	1629.5	–	–
303.15 K, x1 = 0.4779	–	–	50.2	–
303.15 K, x1 = 0.4894	–	–	–	9.757
303.15 K, x1 = 0.4979	1215.7	1627.3	–	–
303.15 K, x1 = 0.5772	1223.1	1625.1	–	–
303.15 K, x1 = 0.5827	–	–	50.3	–
303.15 K, x1 = 0.5942	–	–	–	14.93
303.15 K, x1 = 0.6015	1225	1624.6	–	–
303.15 K, x1 = 0.6695	1230	1623.3	–	–
303.15 K, x1 = 0.6846	–	–	50.3	–
303.15 K, x1 = 0.6952	–	–	–	22.56
303.15 K, x1 = 0.7309	1233.9	1622.6	–	–
303.15 K, x1 = 0.7771	1236.7	1622.4	–	–
303.15 K, x1 = 0.7861	–	–	50.3	–
303.15 K, x1 = 0.7903	–	–	–	34.94
303.15 K, x1 = 0.8395	1240.2	1623	–	–
303.15 K, x1 = 0.8862	–	–	50.3	–
303.15 K, x1 = 0.8982	–	–	–	58.66
303.15 K, x1 = 0.9054	1243.9	1624.6	–	–
303.15 K, x1 = 0.9425	–	–	50.4	–
303.15 K, x1 = 0.943	–	–	–	70.68
303.15 K, x1 = 0.9633	1247.3	1627.3	–	–
303.15 K, x1 = 1	1249.5	1629.8	50.5	90.75
313.15 K, x1 = 0.0185	1026	1559	–	–
313.15 K, x1 = 0.028	–	–	56	–
313.15 K, x1 = 0.0287	1041.1	1568.7	–	–
313.15 K, x1 = 0.0466	1063.1	1580.6	–	–
313.15 K, x1 = 0.0492	–	–	–	0.843
313.15 K, x1 = 0.0551	–	–	53.7	–
313.15 K, x1 = 0.0766	1091.4	1593	–	–
313.15 K, x1 = 0.0952	–	–	–	1.122
313.15 K, x1 = 0.0964	1105.8	1598.5	–	–
313.15 K, x1 = 0.1008	–	–	51.7	–
313.15 K, x1 = 0.1522	–	–	50.5	–
313.15 K, x1 = 0.1948	–	–	–	1.755
313.15 K, x1 = 0.1965	–	–	49.9	–
313.15 K, x1 = 0.2011	1154.3	1610.4	–	–
313.15 K, x1 = 0.2588	–	–	–	2.326
313.15 K, x1 = 0.2858	1176.6	1610.4	–	–
313.15 K, x1 = 0.2947	–	–	49.8	–
313.15 K, x1 = 0.3451	–	–	49.6	–
313.15 K, x1 = 0.3891	–	–	–	4.172
313.15 K, x1 = 0.3968	–	–	49.5	–
313.15 K, x1 = 0.3993	1196.3	1607.7	–	–
313.15 K, x1 = 0.4779	–	–	49.5	–
313.15 K, x1 = 0.4894	–	–	–	7.412
313.15 K, x1 = 0.4979	1208.2	1604.7	–	–
313.15 K, x1 = 0.5772	1215.5	1602.4	–	–
313.15 K, x1 = 0.5827	–	–	49.6	–
313.15 K, x1 = 0.5942	–	–	–	10.92
313.15 K, x1 = 0.6015	1217.5	1601.9	–	–
313.15 K, x1 = 0.6695	1222.5	1600.6	–	–
313.15 K, x1 = 0.6846	–	–	49.6	–
313.15 K, x1 = 0.6952	–	–	–	16.2
313.15 K, x1 = 0.7309	1226.5	1599.9	–	–
313.15 K, x1 = 0.7771	1229.4	1599.7	–	–
313.15 K, x1 = 0.7861	–	–	49.6	–
313.15 K, x1 = 0.7903	–	–	–	23.05
313.15 K, x1 = 0.8395	1232.9	1600.3	–	–
313.15 K, x1 = 0.8862	–	–	49.6	–
313.15 K, x1 = 0.8982	–	–	–	35.15
313.15 K, x1 = 0.9054	1236.7	1601.8	–	–
313.15 K, x1 = 0.9425	–	–	49.7	–
313.15 K, x1 = 0.943	–	–	–	43.35
313.15 K, x1 = 0.9633	1240.1	1604.2	–	–
313.15 K, x1 = 1	1242.4	1606.3	49.8	56.02
323.15 K, x1 = 0.0185	1020.8	1563.2	–	–
323.15 K, x1 = 0.028	–	–	54.5	–
323.15 K, x1 = 0.0287	1035.6	1569.4	–	–
323.15 K, x1 = 0.0466	1057	1576.8	–	–
323.15 K, x1 = 0.0492	–	–	–	0.714
323.15 K, x1 = 0.0551	–	–	52.2	–
323.15 K, x1 = 0.0766	1084.7	1583.8	–	–
323.15 K, x1 = 0.0952	–	–	–	0.889
323.15 K, x1 = 0.0964	1098.9	1586.7	–	–
323.15 K, x1 = 0.1008	–	–	50.4	–
323.15 K, x1 = 0.1522	–	–	49.2	–
323.15 K, x1 = 0.1948	–	–	–	1.379
323.15 K, x1 = 0.1965	–	–	48.6	–
323.15 K, x1 = 0.2011	1146.9	1591.5	–	–
323.15 K, x1 = 0.2588	–	–	–	1.808
323.15 K, x1 = 0.2858	1169.2	1589.7	–	–
323.15 K, x1 = 0.2947	–	–	48.7	–
323.15 K, x1 = 0.3451	–	–	48.6	–
323.15 K, x1 = 0.3891	–	–	–	3.105
323.15 K, x1 = 0.3968	–	–	48.5	–
323.15 K, x1 = 0.3993	1189	1586	–	–
323.15 K, x1 = 0.4779	–	–	48.5	–
323.15 K, x1 = 0.4894	–	–	–	5.345
323.15 K, x1 = 0.4979	1200.9	1582.6	–	–
323.15 K, x1 = 0.5772	1208.2	1580	–	–
323.15 K, x1 = 0.5827	–	–	48.7	–
323.15 K, x1 = 0.5942	–	–	–	8.242
323.15 K, x1 = 0.6015	1210.1	1579.4	–	–
323.15 K, x1 = 0.6695	1215.1	1577.7	–	–
323.15 K, x1 = 0.6846	–	–	48.7	–
323.15 K, x1 = 0.6952	–	–	–	12.05
323.15 K, x1 = 0.7309	1219.2	1576.7	–	–
323.15 K, x1 = 0.7771	1222.1	1576.2	–	–
323.15 K, x1 = 0.7861	–	–	48.8	–
323.15 K, x1 = 0.7903	–	–	–	15.97
323.15 K, x1 = 0.8395	1225.8	1576.6	–	–
323.15 K, x1 = 0.8862	–	–	48.9	–
323.15 K, x1 = 0.8982	–	–	–	23.99
323.15 K, x1 = 0.9054	1229.6	1578.1	–	–
323.15 K, x1 = 0.9425	–	–	48.9	–
323.15 K, x1 = 0.943	–	–	–	28.38
323.15 K, x1 = 0.9633	1233	1580.8	–	–
323.15 K, x1 = 1	1235.3	1583.3	49	36.99
